The values that follow are results of earlier work, collected in publication PMC8994735 (Targeted Oncology, 2021).

For the series, the system named is patients from the United States / Western patients. The conditions noted are these: cited from earlier work.

Like-named read-outs stand apart in the source and are kept apart here.

On to `CC(C)n1nc(-c2ccc3oc(N)nc3c2)c2c(N)ncnc21` [sapanisertib], for which the Incidence of stomatitis is 10% (20 or 30 mg QW), 35% (sapanisertib 2–7 mg QD), 18% (sapanisertib 3 or 4 mg QD) and 30% (sapanisertib 7–40 mg QW).
